Reference: patent US20050137135A1 (priority 2002, published 2005)
pIC50: −log10 of the molar value. Entries after “also recorded” stand apart in the source; their conditions may differ.

Key:
[1] = molecular target: T1, rat pancreatic islet (wild type) GIP-receptor stably expressed on CHO-K1 cells (rat) (UniProt P43219); experiment: competition with 125I-GIP on intact CHO-K1 cells expressing rat GIP receptor
T1 sequence (looked up): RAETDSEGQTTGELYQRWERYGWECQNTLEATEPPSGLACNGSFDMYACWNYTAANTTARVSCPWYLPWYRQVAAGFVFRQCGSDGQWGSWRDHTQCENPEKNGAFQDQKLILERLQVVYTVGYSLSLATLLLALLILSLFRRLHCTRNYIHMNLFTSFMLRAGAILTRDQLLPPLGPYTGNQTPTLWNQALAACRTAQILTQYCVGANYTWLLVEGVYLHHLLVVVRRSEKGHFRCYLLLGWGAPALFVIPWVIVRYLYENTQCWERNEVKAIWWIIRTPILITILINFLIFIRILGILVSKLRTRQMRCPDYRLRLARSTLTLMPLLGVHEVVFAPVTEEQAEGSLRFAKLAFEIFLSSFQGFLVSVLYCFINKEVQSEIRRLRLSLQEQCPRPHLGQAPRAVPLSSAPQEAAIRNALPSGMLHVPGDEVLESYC

[2] = molecular target: T1, rat pancreatic islet (wild type) GIP-receptor stably expressed on CHO-K1 cells (rat); experiment: displacement of 125I-GIP from intact CHO-K1 cells expressing rat GIP receptor, 10 µM peptide
[3] = molecular target: T1, rat pancreatic islet (wild type) GIP-receptor stably expressed on CHO-K1 cells (rat); experiment: cell-based or functional assay
[4] = in vivo; cited from earlier work
INS-1 (832/13) cells [5] = experiment: Glucose dependent β-cell proliferation (CYQUANT cell quantification); format: cell-based
Protocol: (§1) Cell passages 45-60 were used.
Cells were seeded into 96-well plates (5×10^4 cells/well) prior to experimentation. […] Thereafter, cells were washed with KRBH (115 mM NaCl, 4.7 mM KCl, 1.2 mM KH2PO4, 10 mM NaHCO3, 1.28 mM CaCl2, 1.2 mM MgSO4 containing 10 mM HEPES and 0.1% bovine serum albumin, pH 7.4) and frozen at −70° C. until assayed. Cells were quantified using the CYQUANT™ assay system (Molecular Probes, Eugene, Oreg., USA) according to the manufacturers' protocol. Final cell numbers were always greater than the initial number plated in assessing cellular proliferation.

INS-1 (832/13) cells [6] = experiment: Cell survival during glucose deprivation (CYQUANT); format: cell-based
Protocol: as §1
Cells were seeded into 96-well plates (5×10^4 cells/well) prior to experimentation. […] Cells were quantified using the CYQUANT™ assay system (Molecular Probes, Eugene, Oreg., USA) according to the manufacturers' protocol.
Cell survival was assessed in the presence of prolonged glucose deprivation.

[7] = test system: caspase-3 activity in INS-1 (832/13) cells; experiment: Caspase-3 activity induced by glucose deprivation; format: cell-based; settings: 6 h; 100 nM GIP, 10 µM forskolin
Protocol: (§2) INS-1 cells (clone 832/13) seeded into 6-well plates were serum starved for 12-24 h and subjected to glucose deprivation (RPMI with 0.1% BSA) or treatment with 2 mM streptozotocin (STZ). […] Following treatment, caspase-3 activity was determined after 2, 6, or 24 h according to the manufacturers' protocol (Molecular Probes, Eugene, Oreg., USA). Caspase-3 activity/well was corrected for total protein content using the BCA protein assay (Pierce, Roxford, II, USA).

[8] = test system: INS-1 cells (clone 832/13); experiment: Insulin release from INS-1 (832/13) cells; format: cell-based; settings: 10 nM GIP, 60 minutes, n=3
Excerpt: as §1

[9] = test system: caspase-3 activity in INS-1 (832/13) cells; experiment: Caspase-3 activity induced by streptozotocin (STZ); format: cell-based; settings: added 10 minutes prior to and during a 30 minute STZ exposure
Protocol: as §2

GIP 15-42OH (peptide), sequence (P09681 66-93): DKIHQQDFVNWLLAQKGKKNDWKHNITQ

Compound | pIC50 [1] | % Displacement at 10 µM [2] [%] | cAMP Production (Fold Basal) at 10 µM [3] [fold basal] | cAMP Production (Fold Basal) at 20 µM [3] [fold basal] | biological half-life [4] [min] | potentiation of glucose dependent β-cell proliferation (INS-1 (832/13) cells [5]; 11 mM glucose) | cell proliferation, % of growth in the presence of 5.5 mM glucose (INS-1 (832/13) cells [5]; 11 mM glucose, 100 nM, FIG. 15A) [%] | cell growth, % of that measured in the presence of 5.5 mM glucose (INS-1 (832/13) cells [5]; separate experiment, 100 nM, n=4) [%] | effect on cell survival during glucose deprivation (INS-1 (832/13) cells [6]; 0 mM glucose) | protection against wortmannin-induced cell loss (INS-1 (832/13) cells [6]; n=3, p<0.05) | 0 mM glucose induced caspase-3 activity [7] | 5.5 mM glucose stimulated insulin secretion [8] [% total insulin secreted] | STZ induced caspase-3 activity [9]
GIP 15-42OH (peptide) | 5.90 | 83.3 | 1.02 | 1.01 |  |  |  |  |  |  |  |  | 
CC[C@H](C)[C@H](NC(=O)[C@H](CO)NC(=O)[C@H](Cc1ccc(O)cc1)NC(=O)[C@H](CC(=O)O)NC(=O)[C@H](CO)NC(=O)[C@@H](NC(=O)[C@H](Cc1ccccc1)NC(=O)[C@@H](NC(=O)CNC(=O)[C@H](CCC(=O)O)NC(=O)[C@H](C)NC(=O)[C@@H](N)Cc1ccc(O)cc1)[C@@H](C)O)[C@@H](C)CC)C(=O)N[C@@H](C)C(=O)N[C@@H](CCSC)C(=O)N[C@@H](CC(=O)O)C(=O)N[C@@H](CCCCN)C(=O)N[C@H](C(=O)N[C@@H](Cc1c[nH]cn1)C(=O)N[C@@H](CCC(N)=O)C(=O)N[C@@H](CCC(N)=O)C(=O)N[C@@H](CC(=O)O)C(=O)N[C@@H](Cc1ccccc1)C(=O)N[C@H](C(=O)N[C@@H](CC(N)=O)C(=O)N[C@@H](Cc1c[nH]c2ccccc12)C(=O)N[C@@H](CC(C)C)C(=O)N[C@@H](CC(C)C)C(=O)N[C@@H](C)C(=O)N[C@@H](CCC(N)=O)C(=O)N[C@@H](CCCCN)C(=O)NCC(=O)N[C@@H](CCCCN)C(=O)N[C@@H](CCCCN)C(=O)N[C@@H](CC(N)=O)C(=O)N[C@@H](CC(=O)O)C(=O)N[C@@H](Cc1c[nH]c2ccccc12)C(=O)N[C@@H](CCCCN)C(=O)N[C@@H](Cc1c[nH]cn1)C(=O)N[C@@H](CC(N)=O)C(=O)N[C@H](C(=O)N[C@H](C(=O)N[C@@H](CCC(N)=O)C(=O)O)[C@@H](C)O)[C@@H](C)CC)C(C)C)[C@@H](C)CC [GIP, glucose-dependent insulinotropic polypeptide] |  |  |  |  | ~2 | potentiates 11 mM glucose induced cell growth | 158±16 | 131±7 | promotes INS-1 (832/13) cell survival during glucose deprivation in a concentration-dependent manner | partially protected; also recorded: partially reversed | completely reversed; also recorded: ablates | 2.44±0.29 | protect against the pro-apoptotic (caspase-3 activating) effects of STZ completely; also recorded: ablates
CC(=O)N[C@@H](CC(=O)O)C(=O)N[C@@H](CCC(=O)O)C(=O)N[C@H](C(=O)N[C@H](C=O)CC(=O)O)C(C)C [Ac-DEVD-CHO] |  |  |  |  |  |  |  |  |  |  | completely blocked low glucose activation |  | 
